Experimental data: patent publication US12295365B2, “Composition including an antimicrobial boosting agent including a sultaine and methods of increasing the antimicrobial effectiveness of a composition” (KIMBERLY-CLARK WORLDWIDE, INC., priority 2018, dated 2025)
Counter-ions that a name gives are not always drawn.

The compounds below were run on B. cepacia (ATCC 25416) (assay: Minimum Effective Concentration (MEC) Test Method). Settings: boosting agent (the label) at 5 mmol/L; 24 hours at room temperature.
Assay type: cell-based, Burkholderia cepacia
Description: Initial testing was conducted to screen a variety of surfactants in researching for potential antimicrobial boosting agents. The initial testing followed the methodology as described in the Minimum Effective Concentration (“MEC”) Test Method described in the Test Methods section herein. To summarize, the MEC testing paired a variety of potential antimicrobial boosting agents with a variety of known antimicrobial agents to determine the MEC of the respective antimicrobial agent that must be used to provide an effective antimicrobial result, as described in further detail in the Test Methods section. The more positive the boosting characteristics of an antimicrobial boosting agent, then the lower the MEC that would be required for the paired antimicrobial agent. It is to be noted that the molarities listed in Table 1 are approximate values that were calculated based on the estimated activities of the ingredients and the molecular weights of the active ingredients. In instances where an exact activity was not available for an ingredient blend, the ingredient blend activity was estimated as the average of the upper and lower limits of the specification provided by the manufacturer of such blend. In instances where an exact molecular weight could not be calculated (for example, in compounds derived from a natural oil like coconut oil), the molecular weight of the active was estimated based on a weighted average of the molecular weights of the constituent species.
The Minimum Effective Concentration Test Method discussed herein began by adding B. cepacia (ATCC 25416) culture at a final concentration of approximately 5×10^6 CFU/mL to the composition to be challenged. The challenged composition was then allowed to incubate at room temperature for 24 hours. After 24 hours, a preservative neutralizing broth was added to the mixture and measurements were subsequently taken to determine the concentration of B. cepacia still remaining after exposure to the test composition.
The Minimum Effective Concentration was determined by completing the process described above on a series of compositions with the same concentration of antimicrobial boosting agent, but with different concentrations of antimicrobial agent. The Minimum Effective Concentration of antimicrobial agent for any given value of antimicrobial boosting agent was defined as the minimum concentration of antimicrobial agent required to reduce the concentration of B. cepacia to a level below the detection threshold for the test method, which was approximately 100 CFU/mL. In instances where multiple rounds of Minimum Effective Concentration testing were completed, the value reported is the mean of the Minimum Effective Concentration values generated by each individual series of tests.

| Compound | MEC of Lactic Acid (Purac FCC 88) paired with the potential boosting agent | MEC of Caprylhydroxamic Acid (Zeastat) paired with the potential boosting agent | MEC of Hydroxyacetophenone (SymSave H) paired with the potential boosting agent | MEC of Sodium Benzoate paired with the potential boosting agent |
| --- | --- | --- | --- | --- |
| Laureth-3 Phosphate | 40 mmol/L |  |  |  |
| Lauramidopropyl Hydroxysultaine | 30 mmol/L |  |  |  |
| CCCCCCCC[N+](C)(C)[O-] [Octyldimethylamine Oxide] | 40 mmol/L |  |  |  |
| CCCCCCCCCCCCCCCC[N+](C)(C)CC(=O)[O-] [Cetyl Betaine] | 40 mmol/L |  |  |  |
| CCCCCCCCCCCC[N+](C)(C)CC(O)CS(=O)(=O)[O-] (stereo not shown) [Lauryl Hydroxysultaine] | 17 mmol/L | <2 mmol/L | <5 mmol/L | <1 mmol/L |
| CCCCCCCC[N+](C)(C)CC(=O)[O-] [Octyl Betaine] | 40 mmol/L |  |  |  |
| CCCCCCCCCCCC[N+](C)(C)CCCS(=O)(=O)[O-] [Lauryl Sultaine, N-Dodecyl-N,N-dimethyl-3-ammonio-1-propanesulfonate] | 20 mmol/L |  | 10 mmol/L |  |
| CCCCCCCCCCCC(=O)OC(C)C(=O)OC(C)C(=O)[O-].[Na+] (stereo not shown) [Sodium Lauroyl Lactylate] | 30 mmol/L |  |  |  |
| CCCCCCCCCCCCCC[N+](C)(C)CCCS(=O)(=O)[O-] [Myristyl Sultaine, 3-(N,N-Dimethylmyristylammonio)propanesulfonate] | 40 mmol/L |  |  |  |
| C[N+](C)(CCCS(=O)(=O)[O-])Cc1ccccc1 [Benzyl Sultaine, 3-(Benzyldimethylammonio)propanesulfonate] | 40 mmol/L |  |  |  |
| CCCCCCCCCC[N+](C)(C)CCCS(=O)(=O)[O-] [Decyl Sultaine, 3-(Decyldimethylammonio)-propanesulfonate inner salt] | 30 mmol/L |  | 10 mmol/L |  |
| CCCCCCCC[N+](C)(C)CCCS(=O)(=O)[O-] [Caprylyl Sultaine, 3-(N,N-Dimethyloctylammonio)propanesulfonate inner salt] | 40 mmol/L |  |  |  |
| Lauryl Glucoside | >30 mmol/L |  |  | 10 mmol/L |
| Sodium Laurylglucosides Hydroxypropylsulfonate | >50 mmol/L |  |  |  |
| C[N+](C)(CCO)CC(O)C[N+](C)(C)CCO.[Cl-].[Cl-] [Hydroxypropyl Bis-Hydroxyethyldimonium Chloride] | 50 mmol/L |  |  |  |

Same assay, conditions: no boosting agent; 24 hours at room temperature

| Compound | MEC of Lactic Acid (Purac FCC 88) | MEC of Sodium Benzoate | MEC of Hydroxyacetophenone (SymSave H) | MEC of Caprylhydroxamic Acid (Zeastat) |
| --- | --- | --- | --- | --- |
| CC(O)C(=O)O (stereo not shown) [Lactic Acid] | 60 mmol/L |  |  |  |
| O=C([O-])c1ccccc1.[Na+] [Sodium Benzoate] |  | 7.5 mmol/L |  |  |
| O=C(CO)c1ccccc1 [Hydroxyacetophenone] |  |  | 20 mmol/L |  |
| CCCCCCCC(=O)NO [Caprylhydroxamic Acid] |  |  |  | 10 mmol/L |
